Experimental data published in US12252484B2, “Pyrazolopyridine compounds for the treatment of autoimmune disease” (Hoffmann-La Roche Inc., priority 2018, dated 2025).

Each molecule was assayed against T1, human TLR7 (Homo sapiens, UniProt Q9NYK1) (assay: HEK293-Blue-hTLR-7 cells assay (SEAP reporter, R848 stimulation)). Details: not given.
T1 sequence (Q9NYK1 27-1049): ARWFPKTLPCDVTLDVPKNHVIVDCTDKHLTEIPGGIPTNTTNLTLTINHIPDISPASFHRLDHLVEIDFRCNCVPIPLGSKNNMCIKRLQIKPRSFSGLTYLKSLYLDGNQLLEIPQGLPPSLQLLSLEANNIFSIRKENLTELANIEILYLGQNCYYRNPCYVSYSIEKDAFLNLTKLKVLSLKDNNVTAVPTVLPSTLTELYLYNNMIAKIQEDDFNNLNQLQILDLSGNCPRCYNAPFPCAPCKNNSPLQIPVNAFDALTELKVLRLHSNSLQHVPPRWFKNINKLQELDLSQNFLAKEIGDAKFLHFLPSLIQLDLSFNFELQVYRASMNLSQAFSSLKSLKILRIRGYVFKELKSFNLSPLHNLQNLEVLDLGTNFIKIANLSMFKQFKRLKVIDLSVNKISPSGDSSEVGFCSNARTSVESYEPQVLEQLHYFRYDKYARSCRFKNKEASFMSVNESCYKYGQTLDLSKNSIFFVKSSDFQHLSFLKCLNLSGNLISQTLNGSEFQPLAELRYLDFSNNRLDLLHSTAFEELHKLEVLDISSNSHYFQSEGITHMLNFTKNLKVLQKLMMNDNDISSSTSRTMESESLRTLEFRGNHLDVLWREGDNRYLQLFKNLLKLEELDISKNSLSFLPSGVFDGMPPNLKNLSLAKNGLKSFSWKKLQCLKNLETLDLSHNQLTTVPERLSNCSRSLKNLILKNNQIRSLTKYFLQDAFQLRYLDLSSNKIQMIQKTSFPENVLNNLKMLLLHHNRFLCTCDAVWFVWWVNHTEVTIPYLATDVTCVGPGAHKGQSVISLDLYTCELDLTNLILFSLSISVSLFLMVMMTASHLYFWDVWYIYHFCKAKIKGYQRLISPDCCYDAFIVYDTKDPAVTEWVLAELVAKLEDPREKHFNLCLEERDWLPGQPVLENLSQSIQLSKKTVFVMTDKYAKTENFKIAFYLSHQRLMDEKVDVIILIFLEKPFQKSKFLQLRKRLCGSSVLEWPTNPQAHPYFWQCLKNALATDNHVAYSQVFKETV
Assay type: cell-based
Protocol: The following tests were carried out in order to determine the activity of the compounds of formula (I) in HEK293-Blue-hTLR-7/8/9 cells assay.
HEK293-Blue-hTLR-7 Cells Assay:
A stable HEK293-Blue-hTLR-7 cell line was purchased from InvivoGen (Cat. #: hkb-htlr7, San Diego, California, USA). These cells were originally designed for studying the stimulation of human TLR7 by monitoring the activation of NF-κB. A SEAP (secreted embryonic alkaline phosphatase) reporter gene was placed under the control of the IFN-β minimal promoter fused to five NF-κB and AP-1-binding sites. The SEAP was induced by activating NF-κB and AP-1 via stimulating HEK-Blue hTLR7 cells with TLR7 ligands. Therefore the reporter expression was declined by TLR7 antagonist under the stimulation of a ligand, such as R848 (Resiquimod), for incubation of 20 hrs. The cell culture supernatant SEAP reporter activity was determined using QUANTI-Blue™ kit (Cat. #: rep-qb1, Invivogen, San Diego, Ca, USA) at a wavelength of 640 nm, a detection medium that turns purple or blue in the presence of alkaline phosphatase.
HEK293-Blue-hTLR7 cells were incubated at a density of 250,000˜450,000 cells/mL in a volume of 170 μL in a 96-well plate in Dulbecco's Modified Eagle's medium (DMEM) containing 4.5 g/L glucose, 50 U/mL penicillin, […], […], 2 mM L-glutamine, 10% (v/v) heat-inactivated fetal bovine serum with addition of 20 μL test compound in a serial dilution in the presence of final DMSO at 1% and 10 μL of 20 uM R848 in above DMEM, perform incubation under 37° C. in a CO2 incubator for 20 hrs. Then 20 μL of the supernatant from each well was incubated with 180 μL Quanti-blue substrate solution at 37° C. for 2 hrs and the absorbance was read at 620˜655 nm using a spectrophotometer. The signalling pathway that TLR7 activation leads to downstream NF-κB activation has been widely accepted, and therefore similar reporter assay was modified for evaluating TLR7 antagonist.
In the case of `C[C@@H]1CN(c2ccc(C#N)n3nccc23)C[C@H](C(=O)NC2CC3CCCC(C2)N3C)O1` (stereo partly drawn) [Example 35, (2R,6R)-4-(7-cyanopyrazolo[1,5-a]pyridin-4-yl)-6-methyl-N-(9-methyl-9-azabicyclo[3.3.1]nonan-3-yl)morpholine-2-carboxamide], the IC50 is reported as 4 nM.

Same assay, conditions: HEK293-Blue-hTLR-7 cells, R848 ligand, 20 hrs incubation; read-out: TLR7 IC50
`C[C@@H]1CN(c2ccc(C#N)n3nccc23)C[C@H](C(=O)NC(C)(C)CN)O1` [Example 41, (2R,6R)-N-(2-amino-1,1-dimethyl-ethyl)-4-(7-cyanopyrazolo[1,5-a]pyridin-4-yl)-6-methyl-morpholine-2-carboxamide] gave an IC50 of 46 nM. Work on `C[C@@H]1CN(c2ccc(C#N)n3nccc23)C[C@H](C(=O)NCC(C)(C)CN)O1` [Example 39, (2R,6R)-N-(3-amino-2,2-dimethyl-propyl)-4-(7-cyanopyrazolo[1,5-a]pyridin-4-yl)-6-methyl-morpholine-2-carboxamide] yielded an IC50 of 30 nM. `C[C@@H]1CN(c2ccc(Cl)n3nccc23)C[C@H](C(=O)NC2CCN(C)CC2)O1` [Example 38, (2R,6R)-4-(7-chloropyrazolo[1,5-a]pyridin-4-yl)-6-methyl-N-(1-methyl-4-piperidyl)morpholine-2-carboxamide] showed an IC50 of 28 nM. `C[C@@H]1CN(c2ccc(C#N)n3nccc23)C[C@H](C(=O)N[C@H]2CC[C@H](O)CC2)O1` [Example 21, Trans-(2R,6R)-4-(7-cyanopyrazolo[1,5-a]pyridin-4-yl)-N-(4-hydroxycyclohexyl)-6-methyl-morpholine-2-carboxamide] was tested, and the IC50 was 420 nM. For `C[C@@H]1CN(c2ccc(C#N)n3nccc23)C[C@H](C(=O)NC2C3CCC2CNC3)O1` (stereo partly drawn) [Example 26, (2R,6R)-N-(3-azabicyclo[3.2.1]octan-8-yl)-4-(7-cyanopyrazolo[1,5-a]pyridin-4-yl)-6-methyl-morpholine-2-carboxamide], the IC50 was 20 nM. In the case of `C[C@@H]1CN(c2ccc(C#N)n3nccc23)C[C@H](C(=O)NCC2CCNC2)O1` (stereo partly drawn) [Example 40, (2R,6R)-4-(7-cyanopyrazolo[1,5-a]pyridin-4-yl)-6-methyl-N-(pyrrolidin-3-ylmethyl)morpholine-2-carboxamide], the IC50 is reported as 210 nM. `C[C@@H]1CN(c2ccc(C#N)n3nccc23)C[C@H](C(=O)NC2CC3CCC2CN3C)O1` (stereo partly drawn) [Example 34, (2R,6R)-4-(7-cyanopyrazolo[1,5-a]pyridin-4-yl)-6-methyl-N-(2-methyl-2-azabicyclo[2.2.2]octan-5-yl)morpholine-2-carboxamide] showed an IC50 of 10 nM. `C[C@@H]1CN(c2ccc(C#N)n3nccc23)C[C@H](C(=O)NC2CC3CC2CN3)O1` (stereo partly drawn) [Example 36, (2R,6R)-N-(2-azabicyclo[2.2.1]heptan-5-yl)-4-(7-cyanopyrazolo[1,5-a]pyridin-4-yl)-6-methyl-morpholine-2-carboxamide] showed an IC50 of 130 nM. `C[C@@H]1CN(c2ccc(C#N)n3nccc23)C[C@H](C(=O)NC23CC4CC(CC(C4)C2)C3)O1` [Example 12, (2R,6R)-N-(1-adamantyl)-4-(7-cyanopyrazolo[1,5-a]pyridin-4-yl)-6-methyl-morpholine-2-carboxamide] gave an IC50 of 210 nM. `C[C@@H]1CN(c2ccc(C#N)n3nccc23)C[C@H](C(=O)NC2C3CNCC2COC3)O1` (stereo partly drawn) [Example 27, (2R,6R)-4-(7-cyanopyrazolo[1,5-a]pyridin-4-yl)-6-methyl-N-(3-oxa-7-azabicyclo[3.3.1]nonan-9-yl)morpholine-2-carboxamide] showed an IC50 of 63 nM. `C[C@@H]1CN(c2ccc(C#N)n3nccc23)C[C@H](C(=O)NC2C3CCCC2CNC3)O1` (stereo partly drawn) [Example 37, (2R,6R)-N-(3-azabicyclo[3.3.1]nonan-9-yl)-4-(7-cyanopyrazolo[1,5-a]pyridin-4-yl)-6-methyl-morpholine-2-carboxamide] showed an IC50 of 9 nM. Molecule `C[C@@H]1CN(c2ccc(C#N)n3nccc23)C[C@H](C(=O)NC2C3CNC[C@@H]32)O1` (stereo partly drawn) [Example 31, Trans-(2R,6R)-N-(3-azabicyclo[3.1.0]hexan-6-yl)-4-(7-cyanopyrazolo[1,5-a]pyridin-4-yl)-6-methyl-morpholine-2-carboxamide] has an IC50 of 50 nM. In the case of `C[C@@H]1CN(c2ccc(C#N)n3nccc23)C[C@H](C(=O)N[C@H]2CNC[C@H]2F)O1` [Example 2, (2R,6R)-4-(7-cyanopyrazolo[1,5-a]pyridin-4-yl)-N-[(3S,4R)-4-fluoropyrrolidin-3-yl]-6-methyl-morpholine-2-carboxamide], the IC50 is reported as 91 nM. `C[C@@H]1CN(c2ccc(C#N)n3nccc23)C[C@H](C(=O)NC2CC3(CNC3)C2)O1` [Example 3, (2R,6R)-N-(2-azaspiro[3.3]heptan-6-yl)-4-(7-cyanopyrazolo[1,5-a]pyridin-4-yl)-6-methyl-morpholine-2-carboxamide] showed an IC50 of 160 nM. In the case of `CCC(C)(C)NC(=O)[C@H]1CN(c2ccc(C#N)n3nccc23)C[C@@H](C)O1` [Example 17, (2R,6R)-4-(7-cyanopyrazolo[1,5-a]pyridin-4-yl)-N-(1,1-dimethylpropyl)-6-methyl-morpholine-2-carboxamide], the IC50 is reported as 360 nM. With `C[C@@H]1CN(c2ccc(C#N)n3nccc23)C[C@H](C(=O)NC2CCNC2)O1` (stereo partly drawn) [Example 25, (2R,6R)-4-(7-cyanopyrazolo[1,5-a]pyridin-4-yl)-6-methyl-N-pyrrolidin-3-yl-morpholine-2-carboxamide] the IC50 was 150 nM. Work on `C[C@@H]1CN(c2ccc(C#N)n3nccc23)C[C@H](C(=O)NC2CN(C)CC23CC3)O1` (stereo partly drawn) [Example 32, (2R,6R)-4-(7-cyanopyrazolo[1,5-a]pyridin-4-yl)-6-methyl-N-(5-methyl-5-azaspiro[2.4]heptan-7-yl)morpholine-2-carboxamide] yielded an IC50 of 31 nM. `C[C@@H]1CN(c2ccc(C#N)n3nccc23)C[C@H](C(=O)NC2CC3COCC(C2)N3)O1` (stereo partly drawn) [Example 22, Endo-(2R,6R)-4-(7-cyanopyrazolo[1,5-a]pyridin-4-yl)-6-methyl-N-[3-oxa-9-azabicyclo[3.3.1]nonan-7-yl]morpholine-2-carboxamide] was tested, and the IC50 was 10 nM. Work on `C[C@@H]1CN(c2ccc(C#N)n3nccc23)C[C@H](C(=O)N2CC(N)C2)O1` [Example 8, 4-[(2R,6R)-2-(3-aminoazetidine-1-carbonyl)-6-methyl-morpholin-4-yl]pyrazolo[1,5a]pyridine-7-carbonitrile] yielded an IC50 of 190 nM. `C[C@@H]1CN(c2ccc(C#N)n3nccc23)C[C@H](C(=O)NC2CCCNCC2)O1` (stereo partly drawn) [Example 6, (2R,6R)-N-(azepan-4-yl)-4-(7-cyanopyrazolo[1,5-a]pyridin-4-yl)-6-methyl-morpholine-2-carboxamide] showed an IC50 of 16 nM. With `C[C@@H]1CN(c2ccc(C#N)n3nccc23)C[C@H](C(=O)NC2(C)CCNCC2)O1` [Example 19, (2R,6R)-4-(7-cyanopyrazolo[1,5-a]pyridin-4-yl)-6-methyl-N-(4-methyl-4-piperidyl)morpholine-2-carboxamide] the IC50 was 99 nM. With `C[C@H]1C[C@@H](NC(=O)[C@H](C)N)CN(c2ccc(C#N)n3nccc23)C1` [Example 44, (2S)-2-amino-N-[(3R,5S)-1-(7-cyanopyrazolo[1,5-a]pyridin-4-yl)-5-methyl-3-piperidyl]propanamide] the IC50 was 64 nM. `C[C@@H]1CN(c2ccc(C#N)n3nccc23)C[C@H](C(=O)NC2CC3CCCC(C2)N3)O1` (stereo partly drawn) [Example 14, (2R,6R)-N-(9-azabicyclo[3.3.1]nonan-3-yl)-4-(7-cyanopyrazolo[1,5-a]pyridin-4-yl)-6-methyl-morpholine-2-carboxamide] was tested, and the IC50 was 7 nM.
